Where two headings read alike, the source gives them in different places.
Target: T1, Kv1.3 channels expressed in Sf21 insect cells (Homo sapiens, UniProt P22001)
T1 construct: expressed in transfected cells; host or cells: Sf21 insect cells, baculovirus infection
Experiment: Stability ex vivo in rat blood plasma, read out as IC50 on Kv1.3 (Example 3)
Type: in vitro ADME
Experimental: The aim was to test the stability of the cgtx-544 peptide in blood plasma of mammals after different incubation times at room temperature (RT) and 37° C. Stability was defined as IC50 value of cgtx-544 after different incubation times at RT and 37° C. Blood plasma was prepared from fresh blood samples from healthy rats or humans. Heparin was added to fresh blood samples to prevent clogging. Plasma preparation was performed by centrifugation for 2 min at 2000×g at RT.
As the cgtx-544 peptide used in these experiments was incompletely folded, a higher IC50 than normal was determined.
To investigate the stability and activity in plasma the peptide was added to freshly prepared human and rat blood plasma at a final concentration of 2 μM. The samples were split into two aliquots and incubated at 37° C. and at room temperature (RT, 20° C.). For the electrophysiological analysis serial dilutions of the samples were prepared.

T1 sequence (P22001 whole entry): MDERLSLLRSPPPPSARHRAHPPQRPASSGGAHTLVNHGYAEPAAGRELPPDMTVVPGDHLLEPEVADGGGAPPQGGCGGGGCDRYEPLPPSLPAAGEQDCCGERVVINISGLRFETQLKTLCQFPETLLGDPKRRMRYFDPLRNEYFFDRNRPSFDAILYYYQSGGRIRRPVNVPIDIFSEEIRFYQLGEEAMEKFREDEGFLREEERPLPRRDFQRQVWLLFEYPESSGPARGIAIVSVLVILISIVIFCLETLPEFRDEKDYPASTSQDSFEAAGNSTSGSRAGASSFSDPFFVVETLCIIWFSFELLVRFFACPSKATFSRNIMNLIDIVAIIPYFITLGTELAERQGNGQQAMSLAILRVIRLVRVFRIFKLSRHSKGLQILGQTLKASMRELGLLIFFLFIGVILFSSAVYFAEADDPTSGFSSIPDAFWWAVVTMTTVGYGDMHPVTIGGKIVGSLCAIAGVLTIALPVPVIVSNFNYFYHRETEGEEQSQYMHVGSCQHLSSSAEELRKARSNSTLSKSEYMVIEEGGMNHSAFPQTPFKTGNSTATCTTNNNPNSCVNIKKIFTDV

CC[C@H](C)[C@H](NC(=O)[C@@H](N)[C@@H](C)O)C(=O)N[C@H](C(=O)N[C@@H](CC(N)=O)C(=O)N[C@H](C(=O)N[C@@H](CCCCN)C(=O)N[C@H]1CSSC[C@@H]2NC(=O)[C@H](CCCCN)NC(=O)CNC(=O)[C@H](Cc3ccc(O)cc3)NC(=O)[C@@H]3CCCN3C(=O)[C@@H]3CSSC[C@@H](C(=O)O)NC(=O)[C@H](CCCNC(=N)N)NC(=O)[C@H](CC(N)=O)NC(=O)[C@@H]4CSSC[C@H](NC(=O)[C@@H]5CCCN5C(=O)[C@@H]5CCCN5C(=O)[C@H](CC(C)C)NC(=O)[C@H](CSSC[C@H](NC(=O)[C@H](CCCCN)NC(=O)[C@H](CCCNC(=N)N)NC(=O)[C@H](CC(N)=O)NC(=O)[C@H](CCSC)NC2=O)C(=O)N[C@@H](CCCCN)C(=O)N4)NC(=O)[C@H](CCC(N)=O)NC(=O)[C@H](CCCCN)NC(=O)[C@@H]2CCCN2C(=O)[C@H](CO)NC(=O)[C@H]([C@@H](C)O)NC1=O)C(=O)N[C@@H](CCCCN)C(=O)N[C@@H](C)C(=O)N[C@@H](CCC(N)=O)C(=O)N[C@@H]([C@@H](C)O)C(=O)NCC(=O)N3)C(C)C)[C@@H](C)CC [Compound 7]
significant change in activity (24 h, 37° C. and RT): could not be detected
activity after incubation in plasma (48 h at RT): remained unchanged
activity after incubation in plasma (14 days at 37° C.): no activity was detected
activity after incubation in plasma (14 days at RT): unchanged activity
IC50 (read-out: IC50 on Kv1.3 after incubation in plasma, 48 h at 37° C.): 0.0578 µM
IC50 (read-out: IC50 on Kv1.3 in plasma, time point 0 h): 0.015 µM
